Experimental data published in patent US8110544B2, “RasGAP derived peptide for selectively killing cancer cells” (Universite de Lausanne, priority 2003, dated 2012).

Assays:
[1] = test system: JNK; test: Western blot of phospho-JNK in U2OS cells; assay type: cell-based, human; settings: 20 μM peptide
Description: (§1) U2OS cells (2×10^5) were plated in 6 well plates and treated for the indicated periods of time with the indicated combinations of the HW-TAT48-57 or TAT-RasGAP317-326 peptides (at a 20 μM concentration) and cisplatin (at a 30 μM concentration). Positive controls for JNK and p38 activation were obtained following stimulation of the cells with 1 μg/ml anisomycine during 3 hours and with 0.5 M sorbitol for 30 min, respectively. The quantitations depicted under the Western blots were performed on the 12-hour bands and normalized against the positive controls. The results correspond to the mean±standard deviation of three independent experiments. […]

[2] = test system: p38 MAPKs; test: Western blot of phospho-p38 in U2OS cells; assay type: cell-based, human; settings: 20 μM peptide
Description: as §1

[3] = test system: HeLa cells; test: Apoptosis (pycnotic nuclei) of HeLa cells transfected with RasGAP constructs and treated with genotoxins; assay type: cell-based, human; settings: for potentiation of cisplatin-induced apoptosis in HeLa cells: transfected construct, 0.15 μM cisplatin, apoptosis scored 20 hours later
Description: HeLa cells (2×10^6) were plated in 10-cm-diameter Petri dishes, transfected with 1 μg of GFP-expressing plasmid (to label the transfected cells) together with 2 μg of an empty pcDNA3 plasmid or 2 μg of a pcDNA3 vector encoding fragment N2. One day following the transfection, the cells were incubated for 24 hours with the indicated concentrations of cisplatin, adriamycin or mitoxantrone. The number of GFP-positive cells displaying pycnotic nucleus was then scored.
HeLa cells were transfected as described in FIG. 1 with plasmids endoding the constructs described in FIG. 2A. HeLa cells were then treated or not with 0.15 μM cisplatin and the extent of apoptosis was determined 20 hours later. The results correspond to the mean±standard deviation of three independent determinations. Asterisks denote a significant difference between the cells treated with 0.15 μM cisplatin and the cells without treatment (**, p<0.01; ***, p<0.001).
HeLa and MCF-7 cells were maintained in RPMI 1640 (Sigma; cat. no 8758) containing 10% newborn calf serum (Sigma; cat. no N4637) at 37° C. and 5% CO2. U2OS cells were maintained in DMEM (Sigma; cat. no 5796) containing 15% foetal calf serum (Sigma; cat. no F7524) at 37° C. and 5% CO2. H-Meso-1 cells were maintained in RPMN 1640 containing 10% foetal calf serum at 37° C. and 5% CO2. […] After 8 hours at 37° C. and 5% CO2, the medium was replaced with fresh culture medium and the cells were further incubated for 16-24 hours before being analyzed.
Apoptosis was determined by scoring the number of cells displaying pycnotic nuclei. Nuclei of live cells were labeled with Hoechst 33342 (10 μg/ml final concentration) for about 5 minutes and the cells were then analyzed (at least 400 cells per condition) using an inverted Leica DMIRB microscope equipped with fluorescence and transmitted light optics. […] In this case, the extent of apoptosis was assessed in the transfected cells only. […]

[4] = test system: NFκB activity; test: NFκB firefly luciferase reporter assay in U2OS cells; assay type: cell-based, human; settings: 20 μM peptide or cisplatin, 20 hours
Description: U2OS Cells (1×10^5) were plated in 6 well plates and transfected with 1 μg of a firefly luciferase reporter plasmid for NFκB activity and 0.1 μg of a plasmid encoding the Renilla luciferase. The cells were treated one day later with the indicated concentrations of cisplatin in the absence or in the presence of 20 μM HV-TAT48-57 or TAT-RaSGAP317-326 peptides during 20 hours. The data represent the firefly luciferase activity normalized to the Renilla luciferase activity and expressed as fold increase of the basal NFκB activity obtained in control untreated cells. The results correspond to the mean±standard deviation of three independent determinations. Asterisks denote significant differences between the indicated conditions (**, p<0.01; ***, p<0.001).
U2OS cells were transfected with 1 μg of a firefly luciferase reporter plasmid for NFκB activity, 0.1 μg of a plasmid encoding the Renilla luciferase, 0.5 μg of a GFP-expressing plasmid (to label the transfected cells), 1 μg of a plasmid encoding IκBαΔN2 that inhibit the NFκB pathway or with 1 μg an empty pcDNA3 vector. The cells were incubated one day later with increasing concentrations of cisplatin in the presence of 20 μM HIV-TAT48-57 or 20 μM TAT-RasGAP317-326 for an additional 20 hour period. The cells were then lysed and the NFκB activity assessed as described in panel A, except that the results were expressed as fold increase of the NFκB activity detected in cells incubated with the control HV-TAT48-57 peptide.
Luciferase assay was performed using the Dual-Luciferase® Reporter Assay from Promega (cat. no E1910). […] The firefly luciferase activity was recorded by mixing 20 μl of the lysate with 25 μl of the LARII Reagent and the Renilla luciferase activity was recorded by adding to the previous mix 25 μl of the Stop & Glo Reagent. For each measurement, light emission was quantified during 12 seconds using a Lumat LB 9501 luminometer (Berthold Technologies, Zurich, Switzerland).

[5] = test system: HeLa cells; settings: Yang and Widmann 2001; cited from earlier work

Molecule: GRKKRRQRRR [HIV-TAT48-57, reference compound]
- activation of JNK pathway by peptide alone [1]: neither the control HIV-TAT48-57 peptide nor the TAT-RasGAP317-326 peptide activated these MAPK pathways
- activation of p38 MAPK pathway by peptide alone [2]: neither the control HIV-TAT48-57 peptide nor the TAT-RasGAP317-326 peptide activated these MAPK pathways

Molecule: WMWVTNLRTD (listed as Homo sapiens) [317-326, 10 amino acid long peptide expressed from a transfected construct]
- potentiation of cisplatin-induced apoptosis in HeLa cells [3]: potentiated the ability of cisplatin to kill HeLa cells

Molecule: N.N.[Cl][Pt][Cl] [cisplatin, reference compound]
- NFkB activation in U2OS cells (single agent) [4]: activated

B1: SH2 domain: human RasGAP amino acids 158-277, expressed from plasmid SH2.dn3 (protein, UniProt P20936 158-277, looked up, fragment)
chain: SLDGPEYEEEEVAIPLTAPPTNQWYHGKLDRTIAEERLRQAGKSGSYLIRESDRRPGSFVLSFLSQMNVVNHFRIIAMCGDYYIGGRRFSSLSDLIGYYSHVSCLLKGEKLLYPVAPPEP
modifications: SH2 domain
notes: human RasGAP amino acids 158-277, expressed from plasmid SH2.dn3
- potentiation of cisplatin-induced apoptosis in HeLa cells [3]: did not enhance the ability of cisplatin to kill HeLa cells

B2: fragment N2: human RasGAP amino acids 158 to 455, 36 kDa, expressed from plasmid N2.dn3 (protein, UniProt P20936 158-455, looked up, fragment)
chain: SLDGPEYEEEEVAIPLTAPPTNQWYHGKLDRTIAEERLRQAGKSGSYLIRESDRRPGSFVLSFLSQMNVVNHFRIIAMCGDYYIGGRRFSSLSDLIGYYSHVSCLLKGEKLLYPVAPPEPVEDRRRVRAILPYTKVPDTDEISFLKGDMFIVHNELEDGWMWVTNLRTDEQGLIVEDLVEEVGREEDPHEGKIWFHGKISKQEAYNLLMTVGQVCSFLVRPSDNTPGDYSLYFRTNENIQRFKICPTPNNQFMMGGRYYNSIGDIIDHYRKEQIVEGYYLKEPVPMQDQEQVLNDTVD
- sensitivity of HeLa cells towards the various drugs relative to control cells ([3]; HeLa cells expressing fragment N2 vs empty pcDNA3, cisplatin, adriamycin, mitoxantrone, 24 hours): at least 10 times
- ability of cisplatin to kill the HeLa tumor cell line [5]: enhances the ability of cisplatin to kill the HeLa tumor cell line
